Results taken from ChEMBL document CHEMBL1201862, “PubChem BioAssay data set” (2004).
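Step 1: Grow cells in 96-well plates. Step 2: Expose to compound for 48 hours at 5 concentrations. Step 3: Interpolate endpoints linearly; if unreached, use highest concentration. GI50 is the concentration that inhibits growth by half.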 The source made the active and inactive calls. No stated cut-off is given here; in the data, active = GI50 up to about 1.1 µM and inactive = higher.

Legend:
Assay in all cases: inhibition of tumour cell growth, NCI panel, 48 h
A549 = test system: A549
CCRF-CEM = test system: CCRF-CEM
COLO 205 = test system: COLO 205
HCT-116 = test system: HCT-116
HOP-18 = test system: HOP-18
HT-29 = test system: HT-29
IGROV-1 = test system: IGROV-1
K562 = test system: K562
OVCAR-4 = test system: OVCAR-4
OVCAR-8 = test system: OVCAR-8
SK-MEL-28 = test system: SK-MEL-28
SNB-19 = test system: SNB-19
SNB-75 = test system: SNB-75
TK-10 = test system: TK-10
ACHN = test system: ACHN
SR = test system: SR
BT-549 = test system: BT-549
PC-3 = test system: PC-3
MDA-MB-231 = test system: MDA-MB-231
MDA-N = test system: MDA-N

| Compound | GI50 (A549) | GI50 (CCRF-CEM) | GI50 (COLO 205) | GI50 (HCT-116) | GI50 (HOP-18) | GI50 (HT-29) | GI50 (IGROV-1) | GI50 (K562) | GI50 (OVCAR-4) | GI50 (OVCAR-8) | GI50 (SK-MEL-28) | GI50 (SNB-19) | GI50 (SNB-75) | GI50 (TK-10) | GI50 (ACHN) | GI50 (SR) | GI50 (BT-549) | GI50 (PC-3) | GI50 (MDA-MB-231) | GI50 (MDA-N) |
| --- | --- | --- | --- | --- | --- | --- | --- | --- | --- | --- | --- | --- | --- | --- | --- | --- | --- | --- | --- | --- |
| O=c1[c-](-c2ccccc2)[se]c(-c2ccccc2)[n+]1-c1ccccc1 | 16.3 µM (inactive) | 3.87 µM (inactive) | 15.5 µM (inactive) | 3.51 µM (inactive) | 11.5 µM (inactive) | 23 µM (inactive) | 3.71 µM (inactive) | 16.8 µM (inactive) | 2.35 µM (inactive) | 3.8 µM (inactive) | 9.31 µM (inactive) | 7.52 µM (inactive) | 8.15 µM (inactive) | 8.32 µM (inactive) |  |  |  |  |  |  |
| CSc1s[s+]c(SC)c1[O-] | > 100 µM (inactive) | 8.77 µM (inactive) | 27.2 µM (inactive) | 17.1 µM (inactive) | > 100 µM (inactive) | 24.7 µM (inactive) | 83.6 µM (inactive) | 3.94 µM (inactive) | 51.2 µM (inactive) | 20.1 µM (inactive) | 17.1 µM (inactive) | > 100 µM (inactive) | 38.6 µM (inactive) | > 100 µM (inactive) | 38.4 µM (inactive) | 9.95 µM (inactive) |  |  |  |  |
| c1ccc2c(c1)OCCc1cn[nH]c1-2 | > 100 µM (inactive) | > 100 µM (inactive) | > 100 µM (inactive) | > 100 µM (inactive) | > 43.5 µM (inactive) | > 100 µM (inactive) | > 100 µM (inactive) | > 100 µM (inactive) | > 100 µM (inactive) | > 100 µM (inactive) | > 100 µM (inactive) | > 100 µM (inactive) | 42 µM (inactive) |  |  |  |  |  |  |  |
| CC(=O)Oc1cc2c(cc1OC(C)=O)OCC(c1ccccc1)C2 (stereo not given) | 13 µM (inactive) | 4.4 µM (inactive) | 18.1 µM (inactive) | 27.6 µM (inactive) | 29.9 µM (inactive) | 43.5 µM (inactive) | 33.8 µM (inactive) | 12.1 µM (inactive) | 24 µM (inactive) | 16.9 µM (inactive) | 31 µM (inactive) | 15 µM (inactive) | 8.18 µM (inactive) |  |  |  |  |  |  |  |
| C[S+](C)C1(c2ccccc2)C(=O)c2ccccc2C1=O | 36.4 µM (inactive) | > 46.9 µM (inactive) | > 100 µM (inactive) | > 54.3 µM (inactive) | > 100 µM (inactive) | > 100 µM (inactive) | > 69.3 µM (inactive) | > 51.6 µM (inactive) | > 47.6 µM (inactive) | > 54.7 µM (inactive) | > 100 µM (inactive) | 39 µM (inactive) | 29.2 µM (inactive) | > 100 µM (inactive) | > 65.6 µM (inactive) | > 72.8 µM (inactive) | 11.8 µM (inactive) | 76.2 µM (inactive) |  |  |
| CC(=O)Nc1ccc(-c2nnc(SCC(=O)Nc3ccccc3Cl)o2)cc1 | > 100 µM (inactive) | > 100 µM (inactive) | > 100 µM (inactive) | 44.1 µM (inactive) | 87.7 µM (inactive) | 80.4 µM (inactive) | > 100 µM (inactive) | > 100 µM (inactive) | > 100 µM (inactive) | > 100 µM (inactive) | > 100 µM (inactive) | > 100 µM (inactive) | > 100 µM (inactive) | > 100 µM (inactive) | > 100 µM (inactive) |  |  |  |  |  |
| O=C(Nc1ccc(Cl)cc1Cl)OC(Cn1cncn1)c1ccc(Cl)cc1Cl (stereo not given) | 15.5 µM (inactive) | 38.9 µM (inactive) | 17.2 µM (inactive) | 14.1 µM (inactive) | 23.8 µM (inactive) | 15.2 µM (inactive) | 16.9 µM (inactive) | 15.3 µM (inactive) | 14.4 µM (inactive) | 17.3 µM (inactive) | 16.3 µM (inactive) | 16.9 µM (inactive) | 16.1 µM (inactive) |  | 15.5 µM (inactive) | 41.3 µM (inactive) |  |  |  |  |
| CSc1nc(CO)c(CO)n1C | > 100 µM (inactive) | > 100 µM (inactive) | > 100 µM (inactive) | > 100 µM (inactive) | > 100 µM (inactive) | > 100 µM (inactive) | > 100 µM (inactive) | > 100 µM (inactive) | > 100 µM (inactive) | > 100 µM (inactive) | > 100 µM (inactive) | > 100 µM (inactive) | > 100 µM (inactive) |  |  |  |  |  |  |  |
| NC1=NN(c2ccccc2)C(=O)C1/C(=N\NC(=O)c1cc2ccccc2cc1O)C(=O)Nc1ccc(Cl)c(Cl)c1 (stereo not given) | 42.8 µM (inactive) | 10.1 µM (inactive) | 18.9 µM (inactive) | 35.2 µM (inactive) | 31.6 µM (inactive) | 59.2 µM (inactive) | 28.4 µM (inactive) | 28.4 µM (inactive) | 16.3 µM (inactive) | 17.3 µM (inactive) | 83.4 µM (inactive) | 25.4 µM (inactive) | 31.2 µM (inactive) | 55.6 µM (inactive) | 28.3 µM (inactive) | 0.0612 µM (active) |  |  |  |  |
| CC(C)(C)c1cc(CCC(=O)Nc2ccc(Cl)cc2)nc(NC#N)n1 | > 100 µM (inactive) | > 100 µM (inactive) | > 100 µM (inactive) | > 100 µM (inactive) | > 100 µM (inactive) | > 100 µM (inactive) | > 100 µM (inactive) | > 100 µM (inactive) | > 100 µM (inactive) | > 100 µM (inactive) | > 100 µM (inactive) | > 100 µM (inactive) |  | > 100 µM (inactive) | > 100 µM (inactive) |  |  |  |  |  |
| Cc1cc2c(cc1C)[n+]([O-])c(C(=O)C/C(=N/NC(=O)CC#N)C(=O)Nc1ccccc1C(F)(F)F)c(C)[n+]2[O-] | 35 µM (inactive) | 25.4 µM (inactive) | 46.1 µM (inactive) | 4.05 µM (inactive) | > 100 µM (inactive) | 49.3 µM (inactive) | > 100 µM (inactive) | 35.6 µM (inactive) | 44 µM (inactive) | 50.8 µM (inactive) | 70.8 µM (inactive) | 75 µM (inactive) | 36.6 µM (inactive) | > 100 µM (inactive) | 29.7 µM (inactive) |  |  |  |  |  |
| Cc1cccc2nc3cccc(C(=O)NCCN(C)C)c3nc12 | 0.383 µM (active) | 0.627 µM (active) | 0.443 µM (active) | 0.293 µM (active) | 2.4 µM (inactive) | 0.507 µM (active) | 0.525 µM (active) | 0.363 µM (active) | 0.83 µM (active) | 0.673 µM (active) | 1.01 µM (active) | 0.525 µM (active) | 1.08 µM (active) | 0.433 µM (active) | 0.41 µM (active) |  |  |  |  |  |
| COC(=O)C1=C(c2ccc3c(c2)OCO3)O[C@H](c2ccc3c(c2)OCO3)[C@H]1COC(C)=O | 46.7 µM (inactive) | 78.9 µM (inactive) | 15.3 µM (inactive) | 51.5 µM (inactive) | 36.6 µM (inactive) | 36.2 µM (inactive) | 63.5 µM (inactive) | 35.4 µM (inactive) | 36.6 µM (inactive) | 45.8 µM (inactive) | 65 µM (inactive) |  | 49.5 µM (inactive) | 46.7 µM (inactive) | 29.4 µM (inactive) | 32.1 µM (inactive) |  |  |  |  |
| NC1=NS(=O)(=O)Nc2[nH]c(-c3ccccc3)nc21 | > 100 µM (inactive) | > 100 µM (inactive) | > 100 µM (inactive) | > 100 µM (inactive) | > 100 µM (inactive) | > 100 µM (inactive) | > 100 µM (inactive) | > 100 µM (inactive) | > 100 µM (inactive) | > 100 µM (inactive) | > 100 µM (inactive) | > 100 µM (inactive) | > 100 µM (inactive) | > 100 µM (inactive) | > 100 µM (inactive) | > 100 µM (inactive) |  |  |  |  |
| N#C[C@H](c1nc2ccccc2[nH]1)c1nc2ccccc2nc1Cl | > 54.5 µM (inactive) | 2.64 µM (inactive) | 12.8 µM (inactive) | 6.25 µM (inactive) |  | 5.55 µM (inactive) | 11.2 µM (inactive) | 4.2 µM (inactive) | > 35.2 µM (inactive) | 12.6 µM (inactive) | 20.2 µM (inactive) | 19.9 µM (inactive) | 12.9 µM (inactive) | 14 µM (inactive) | > 23.1 µM (inactive) | 3.09 µM (inactive) | > 28.2 µM (inactive) | > 25.9 µM (inactive) | 12.7 µM (inactive) | 16.7 µM (inactive) |
| C=CCN(c1cc(OCc2ccccc2)c2[nH]cc(C)c2c1)S(C)(=O)=O | 34.7 µM (inactive) | > 100 µM (inactive) | > 100 µM (inactive) | 66.4 µM (inactive) |  | 60.8 µM (inactive) | 88.7 µM (inactive) | > 100 µM (inactive) | 34.4 µM (inactive) | 61.9 µM (inactive) | 48.8 µM (inactive) | 57.9 µM (inactive) | 19.8 µM (inactive) | 92.3 µM (inactive) | 37.6 µM (inactive) | > 100 µM (inactive) | > 100 µM (inactive) | 49.4 µM (inactive) | 44.6 µM (inactive) | 89.7 µM (inactive) |
| NC1=CN2c3ccccc3N(CC(=O)N3CCOCC3)C2C=C1 (stereo not given) | > 100 µM (inactive) | > 100 µM (inactive) | > 100 µM (inactive) | > 100 µM (inactive) |  | > 100 µM (inactive) | > 100 µM (inactive) | > 100 µM (inactive) | > 100 µM (inactive) | > 100 µM (inactive) | > 100 µM (inactive) | > 100 µM (inactive) | > 100 µM (inactive) | > 100 µM (inactive) | > 100 µM (inactive) | > 100 µM (inactive) | > 100 µM (inactive) | > 100 µM (inactive) | > 100 µM (inactive) | > 100 µM (inactive) |
